Experimental data taken from patent publication US8809356B2, “Inhibitors of NEDD8-activating enzyme” (Millennium Pharmaceuticals, Inc., priority 2011, dated 2014).

Legend:
[1] = Pharmacokinetic parameters (plasma AUC) after single subcutaneous administration in HCT116 xenograft mice; type: in vivo; details: I-216 at 10 mg/kg, female Ncr nude mice bearing HCT116 tumor xenografts
NAE = target: T1, NAE (Homo sapiens, UniProt Q8TBC4); assay: In vivo Tumor Pharmacodynamic Model (neddylated cullins in HCT116 tumor xenografts); set-up: species or system female Ncr nude mice; details: expected from the pharmacodynamic and pharmacokinetic figures (FIGS. 1-3)
T1 construct: endogenous in cells; host or cells: HCT116 (ATCC CCL-247) subcutaneous tumour xenografts in female Ncr nude mice
T1 sequence (Q8TBC4 1-463): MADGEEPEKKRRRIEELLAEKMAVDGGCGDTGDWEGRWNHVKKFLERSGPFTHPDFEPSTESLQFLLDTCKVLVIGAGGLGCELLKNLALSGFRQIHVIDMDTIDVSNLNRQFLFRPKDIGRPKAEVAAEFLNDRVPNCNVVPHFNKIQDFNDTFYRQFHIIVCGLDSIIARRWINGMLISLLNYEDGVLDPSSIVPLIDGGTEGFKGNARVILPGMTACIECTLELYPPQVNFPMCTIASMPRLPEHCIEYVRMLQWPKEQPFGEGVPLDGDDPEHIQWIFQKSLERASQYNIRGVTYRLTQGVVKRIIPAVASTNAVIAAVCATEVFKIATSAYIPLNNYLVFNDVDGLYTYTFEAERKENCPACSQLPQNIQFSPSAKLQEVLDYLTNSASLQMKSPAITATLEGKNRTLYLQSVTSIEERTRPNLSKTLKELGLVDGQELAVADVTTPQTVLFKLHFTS
T1 sequence (Q13564 1-534 partner): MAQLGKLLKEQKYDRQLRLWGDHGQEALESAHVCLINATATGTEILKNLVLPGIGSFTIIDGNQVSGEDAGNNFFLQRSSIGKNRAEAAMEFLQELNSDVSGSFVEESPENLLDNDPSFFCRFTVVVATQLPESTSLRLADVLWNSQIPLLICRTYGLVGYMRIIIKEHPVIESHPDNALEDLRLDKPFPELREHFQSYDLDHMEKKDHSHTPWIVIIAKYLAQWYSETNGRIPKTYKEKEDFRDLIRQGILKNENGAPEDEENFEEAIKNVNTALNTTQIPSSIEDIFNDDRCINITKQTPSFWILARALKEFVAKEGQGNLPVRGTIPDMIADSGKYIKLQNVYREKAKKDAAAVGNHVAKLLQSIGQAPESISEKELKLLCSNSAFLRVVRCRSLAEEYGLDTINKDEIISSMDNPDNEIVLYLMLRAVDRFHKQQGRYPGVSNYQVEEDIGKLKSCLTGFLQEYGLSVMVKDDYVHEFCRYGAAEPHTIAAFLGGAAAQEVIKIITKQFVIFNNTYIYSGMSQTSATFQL
Protocol: HCT116 tumor cells (2×10^6) (ATCC #CCL-247) in 100 μL phosphate buffered saline were aseptically injected into the subcutaneous space in the right dorsal flank of female Ncr nude mice (age 5-8 weeks, Charles River) using a 26-gauge needle. Beginning on day 7 after inoculation, tumors were measured twice weekly using a vernier caliper. Tumor volumes were calculated using standard procedures (0.5×(length×width^2)). When the tumors reached a volume of approximately 3-700 mm^3 mice were randomized into groups and injected subcutaneously with compound inhibitor (200 μL) at various doses. Tumors were harvested and crushed in Covaris bags and then transferred to glass tubes on dry ice for sonication in the Covaris E200. […] Supernatants were transferred to new tubes and protein concentrations were determined using the Pierce bicinchoninic acid (BCA) reagents and protein standards. […]
For quantitative analysis of neddylated cullins the procedure was as follows: 20 μg of tumor lysate with lithium dodecyl sulfate (LDS) loading buffer and sample reducing agent (Invitrogen NP0007 and NP0004) was loaded onto 4-12% bis-tris gels, […], 10 well gels (Invitrogen NP0315Box). […] Quantitation of signals on Western blots was performed with the Odyssey software.

Compound: CO[C@H]1Cc2cc(Cl)ccc2[C@H]1Nc1cc(O[C@@H]2C[C@@H](COS(N)(=O)=O)[C@@H](O)C2)ncn1 [I-216, {(1S,2S,4R)-4-[(6-{[(1R,2S)-5-chloro-2-methoxy-2,3-dihydro-1H-inden-1-yl]amino}pyrimidin-4-yl)oxy]-2-hydroxycyclopentyl}methyl sulfamate]
- plasma AUC compared with I-115 at 30 mg/kg [1]: comparable to that observed for I-115 administered at 30 mg/kg
- plasma AUC compared with I-216 at 30 mg/kg [1]: approximately half the AUC observed for I-216 administered at 30 mg/kg
- potency as inhibitor of NAE relative to I-115 (NAE): 2- to 3 fold
